These results are taken from patent US20220218851A1, “COMPOUNDS AND METHODS FOR IMAGING IMMUNE ACTIVITY” (Board of Regents, The University of Texas System, priority 2019, published 2022).

Entries after “also recorded” stand apart in the source; their conditions may differ. Where a name gives a salt, the structure may show the parent alone.

Series [1] deals with neutrophil-like human HL-60 cells. Kind of series: [^18F]4FN cellular retention in PMA-activated neutrophil-like HL-60 cells. The class given is cell-based. To be noted: pre-incubation with inhibitor prior to PMA. Here is the method: HL-60 cells were first differentiated to yield “neutrophil-like” cells. Then, in parallel, cell aliquots from each batch were imaged with L-012 (to confirm ROS production by bioluminescence) and incubated with 6.2 kBq of [^18F]4FN. To induce ROS, all cells were incubated with PMA. […] Data were quantified as a ratio of the cell-associated radioactive counts per milligram protein over concentration of radiotracer in the extracellular space, and then normalized to vehicle.

In series [2] the test system is PMA-induced ear inflammation. The experiment in a line: PMA ear inflammation model, PET/CT imaging. The class given is in vivo, mouse. To be noted: for detection of PMA-inflamed ear versus vehicle ear by PET: about 1 hr post tracer injection ([^18F]FDG from 45 min). Here is the method: 3 Months old Balb/c female mice or 20-26 week-old female C57B16 mice (Taconic) were topically treated with PMA (Sigma) (400 μM) in ethanol on the right ear or vehicle, ethanol, on the left ear. 24 hrs later, inflammation of the right ear was validated by visual inspection for redness and swelling. Mice were then injected IV (unless noted) with [^18F]FN or [^18F]FNS or [^18F]FNG derivatives as noted and PET/CT images were acquired at times indicated, typically 1 hr post injection. Mice, n=3 for [^18F]FN and [^18F]FNS, were euthanized at 1.5 hr post injection for blood metabolism analysis. In one experiment, adult (3 month old Balb/c) were imaged on an in vivo imaging system (IVIS Spectrum, PE; 5 min, binning 16, 25 cm FOV) 10 min post injection of Luminol (200 mg/kg) IP to confirm production of reactive oxygen species. For [^18F]FDG PET imaging experiments, mice were fasted for >4 hr prior to FDG injection. Mice were injected with [^18F]FDG IV under light anesthesia and then allowed to awake, move and drink water at libitum. Cages were kept on a cage warmer during uptake and washout periods. Mice were imaged starting at 45 min post-injection with a 10 min PET/CT scan (Albira, Bruker). In all cases, PET images were acquired for 10 min using a 15 cm FOV; CT images were acquired for fusion using a 7 cm FOV also centered on the object of interest. Image data were decay corrected to injection time (Albira, Bruker) and expressed as % ID/cc or SUV as indicated (PMOD, PMOD Technologies). Actual injected dose was calculated based on measuring the pre- and post-injection activity in the syringe with a dose calibrator on a per mouse basis (Capintec), and mice were individually weighed to calculate individual standardized uptake values. In the context of an acute inflammation model, [^18F]4FN was tested in a pilot experiment in Balb/c mice topically treated with PMA on the right ear or vehicle on the left ear. The treated ear turned red, visually confirming the inflammation site. Mice were injected IP with [^18F]4FN and PET/CT scans were taken at 11 min, 1 h, 2 h and 3 h post injection of tracer (FIG. 5). […] After 1 h, the inflamed ear was clearly visualized (>2% ID/cc). […] Production of reactive oxygen species in the inflamed ear was confirmed by BLI with luminol after PET imaging (FIG. 5) (Gross et al., 2009). This indicated the dependence of the signal on induced inflammation.

In a further series the test system is 4T1 tumor. The experiment in a line: 4T1 tumor PET imaging. To be noted: immunocompetent Balb/C mice, 1 h after injection. The class given is in vivo, mouse. Here is the method:
4T1 murine breast cancer cells were cultured and passaged per ATCC guidelines and utilized prior to 20 passages. 10,000 4T1 cells were injected subcutaneously into the right flank of 6-8 week old Balb/c mice. Tumors grew for 3 weeks prior to imaging. In all cases, PET images were acquired for 10 min using a 15 cm FOV; CT images were acquired for fusion using a 7 cm FOV also centered on the object of interest. Image data were decay corrected to injection time (Albira, Bruker) and expressed as % ID/cc or SUV as indicated (PMOD, PMOD Technologies). Actual injected dose was calculated based on measuring the pre- and post-injection activity in the syringe with a dose calibrator on a per mouse basis (Capintec), and mice were individually weighed to calculate individual standardized uptake values. [^18F]4FNS PET has been employed to visualize 4T1 tumors in immunocompetent Balb/C mice. 4T1 is a reliable murine model for triple negative breast cancer and, in its early proliferative stage, is believed to be heavily infiltrated by immune cells, particularly active neutrophils and myeloid derived suppressor cells (MDSCs; Wang et al., 2017 and Bunt et al., 2006).

As to `c1ccc2c(c1)[I+]c1ccccc1-2` [DPI, reference compound], in series [1], the “blocking of PMA-induced [^18F]4FN retention” value is listed as “blocked”.
`O=C(O)C1OC(Oc2ccc([18F])c3ccccc23)C(O)C(O)C1O` (centres unmarked) [[^18F]4FNG, [^18F]4-fluoronaphthalen-1-yl glucuronide]: in series [2] (IV injection), the “detection of PMA-inflamed ear versus vehicle ear by PET” value was “small differentiation”. Also, in series [2] (PMA model), the “clearance relative to other tracers” value is “cleared much faster”. Further, the “retention in PMA-inflamed ear relative to other tracers” value in series [2] (PMA model, 1 h post injection) was “retained much less than [^18F]FN and [^18F]FNS”.
Regarding `O=S(=O)(O)Oc1ccc([18F])c2ccccc12` [[^18F]4FNS, [^18F]4-fluoronaphthalen-1-yl sulfate], the “detection of PMA-inflamed ear versus vehicle ear by PET” value in series [2] (IV injection) is given as “readily detected; also recorded: clearly visible; also recorded: readily detectable”. Also, in series [2] (IV injection, n=3), the clearance result was “Rapid primarily renal clearance”, the “defluorination (bone)” value is “minor defluorination” and the hepatobiliary excretion entry was “minor hepatobiliary excretion”. In addition, the “visualization of 4T1 tumor by PET” value in the series with 4T1 tumor was “clearly visible; also recorded: easily distinguishable”.
Turning to `OC[C@H]1OC(O)[C@H]([18F])[C@@H](O)[C@@H]1O` (some centres unmarked) [[^18F]FDG, reference compound], the “detection of PMA-inflamed ear versus vehicle ear by PET” value in series [2] (IV injection) is on record as “no differentiation between the ears; also recorded: no FDG image asymmetry was observed”.
For the compound `O=C([O-])CC(O)(CC(=O)[O-])C(=O)[O-].[68Ga+3]` [^68Ga-citrate, reference compound], in series [2] (same animals, same time points), the “difference between inflamed and vehicle ears (perfusion control)” value is listed as “No difference between the ears”.
